Here are results for 21 molecules from patent US8178535B2, “Substituted sulfonamide compounds having bradykinin 1 receptor activity and use thereof as medicaments” (Gruenenthal GmbH, priority 2008, dated 2012).

The target in experiment [1] is T1, B1R receptor of rats (rB1R) (Rattus norvegicus, UniProt P97583).
T1 construct: host or cells: CHO K1 cells
T1 sequence (P97583 1-337): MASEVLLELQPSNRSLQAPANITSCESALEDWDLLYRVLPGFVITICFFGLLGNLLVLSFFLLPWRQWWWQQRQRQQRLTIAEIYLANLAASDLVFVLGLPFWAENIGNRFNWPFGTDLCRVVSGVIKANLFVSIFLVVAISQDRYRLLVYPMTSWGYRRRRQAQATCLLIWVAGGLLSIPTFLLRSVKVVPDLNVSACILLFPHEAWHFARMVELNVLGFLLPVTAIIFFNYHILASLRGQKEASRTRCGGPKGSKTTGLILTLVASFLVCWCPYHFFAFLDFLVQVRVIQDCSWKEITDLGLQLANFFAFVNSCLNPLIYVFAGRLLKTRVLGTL
In words: FLIPR Ca2+ assay (Fluo-4) on CHO K1 cells stably transfected with the B1R gene of rats. The format is cell-based. Particulars: CHO-K1; test substance 10 μM; agonist Des-Arg9-bradykinin 100 nM; % inhibition compared to the maximum achievable inhibition. The essentials: (§1)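 CHO K1 cells stably expressing human or rat B1R, Fluo-4 loaded, read by FLIPR (Ex 488/Em 540, peak fluorescence). Compound at 10 μM gives % activation vs agonist. After 10 min, agonist added (human: Lys-Des-Arg9-bradykinin 0.5 nM; rat: Des-Arg9-bradykinin 100 nM); % inhibition relative to maximal achievable inhibition.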

Experiment [2] addresses T2, human B1R receptor (hB1R) (Homo sapiens, UniProt P46663).
T2 construct: host or cells: CHO K1 cells
T2 sequence (P46663 1-353): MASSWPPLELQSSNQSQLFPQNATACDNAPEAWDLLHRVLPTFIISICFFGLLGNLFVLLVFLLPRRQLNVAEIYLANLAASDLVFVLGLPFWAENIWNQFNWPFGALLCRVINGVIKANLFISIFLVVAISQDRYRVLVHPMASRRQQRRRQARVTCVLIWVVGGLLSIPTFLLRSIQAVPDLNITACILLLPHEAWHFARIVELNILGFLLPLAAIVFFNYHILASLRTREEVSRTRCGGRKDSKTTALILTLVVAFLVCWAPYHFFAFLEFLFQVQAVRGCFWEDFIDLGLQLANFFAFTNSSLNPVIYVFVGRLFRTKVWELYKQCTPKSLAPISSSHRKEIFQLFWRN
In words: FLIPR Ca2+ assay (Fluo-4) on CHO K1 cells stably transfected with the human B1R gene. The format is cell-based. Particulars: CHO-K1; test substance 10 μM; agonist Lys-Des-Arg9-bradykinin 0.5 nM; % inhibition compared to the maximum achievable inhibition. The essentials: as §1

Consider `COc1cc(C)c(S(=O)(=O)N2CCCCC2COCC(=O)N2CCn3c(CN(C)C)ccc3C2CCc2ccccc2)c(C)c1` (stereo not drawn) [(66), 1-(6-((dimethylamino)methyl)-1-phenethyl-3,4-dihydropyrrolo[1,2-a]pyrazin-2(1H)-yl)-2-((1-(4-methoxy-2,6-dimethylphenylsulfonyl)piperidin-2-yl)methoxy)ethanone], for which the figures for the inhibition at 10 µM in experiment [1] and in experiment [2] were 101% and 102%, respectively.
As to `CCCCC1c2ccc(CN(C)C)n2CCN1C(=O)COCC1CCCCN1S(=O)(=O)c1c(C)cc(OC)cc1C` (stereo not drawn) [(67), 1-(1-butyl-6-((dimethylamino)methyl)-3,4-dihydropyrrolo[1,2-a]pyrazin-2(1H)-yl)-2-((1-(4-methoxy-2,6-dimethylphenylsulfonyl)piperidin-2-yl)methoxy)ethanone], the inhibition at 10 µM was found to be 100% in experiment [1] and 102% in experiment [2].
Taken in the same sequence, the figures for `COc1cc(C)c(S(=O)(=O)N2CCCCC2COCC(=O)N2CCn3c(CN(C)C)ccc3C2c2cccs2)c(C)c1` (stereo not drawn) [(68), 1-(6-((dimethylamino)methyl)-1-(thiophen-2-yl)-3,4-dihydropyrrolo[1,2-a]pyrazin-2(1H)-yl)-2-((1-(4-methoxy-2,6-dimethylphenylsulfonyl)piperidin-2-yl)methoxy)ethanone] were 103% and 102%.
For `CCC1c2ccc(CN(C)C)n2CCN1C(=O)COCC1CCCCN1S(=O)(=O)c1c(C)cc(OC)cc1C` (stereo not drawn) [(69), 1-(6-((dimethylamino)methyl)-1-ethyl-3,4-dihydropyrrolo[1,2-a]pyrazin-2(1H)-yl)-2-((1-(4-methoxy-2,6-dimethylphenylsulfonyl)piperidin-2-yl)methoxy)ethanone], the inhibition at 10 µM in experiment [1] came out at 102%; in experiment [2], 104%.
Taken in the same sequence, the figures for `CCC1c2cccn2CCN1C(=O)COCC1CCCCN1S(=O)(=O)c1c(C)cc(OC)cc1C` (stereo not drawn) [(70), 1-(1-ethyl-3,4-dihydropyrrolo[1,2-a]pyrazin-2(1H)-yl)-2-((1-(4-methoxy-2,6-dimethylphenylsulfonyl)piperidin-2-yl)methoxy)ethanone] were 103% and 102%.
In the case of `CCCC1c2cccn2CCN1C(=O)COCC1CCCCN1S(=O)(=O)c1c(C)cc(OC)cc1C` (stereo not drawn) [(71), 2-((1-(4-methoxy-2,6-dimethylphenylsulfonyl)piperidin-2-yl)methoxy)-1-(1-propyl-3,4-dihydropyrrolo[1,2-a]pyrazin-2(1H)-yl)ethanone], the results for the inhibition at 10 µM in experiment [1] and in experiment [2] were 102% and 103%, respectively.
Turning to `COc1cc(C)c(S(=O)(=O)N2CCCCC2COCC(=O)N2CCn3cccc3C2C(C)C)c(C)c1` (stereo not drawn) [(72), 1-(1-isopropyl-3,4-dihydropyrrolo[1,2-a]pyrazin-2(1H)-yl)-2-((1-(4-methoxy-2,6-dimethylphenylsulfonyl)piperidin-2-yl)methoxy)ethanone], the inhibition at 10 µM in experiment [1] and in experiment [2] was 102% each time.
Take `COc1cc(C)c(S(=O)(=O)N2CCCCC2COCC(=O)N2CCn3ncnc3C2)c(C)c1` (stereo not drawn) [(73), 1-(5,6-dihydro-[1,2,4]triazolo[1,5-a]pyrazin-7(8H)-yl)-2-((1-(4-methoxy-2,6-dimethylphenylsulfonyl)piperidin-2-yl)methoxy)ethanone]: the inhibition at 10 µM in experiment [1] is 102%; in experiment [2], 36%.
Taken in the same sequence, the figures for `CCC1c2cccn2CCN1C(=O)CCC1CCCCN1S(=O)(=O)c1c(C)cc(OC)cc1C` (stereo not drawn) [(85), 1-(1-ethyl-3,4-dihydropyrrolo[1,2-a]pyrazin-2(1H)-yl)-3-(1-(4-methoxy-2,6-dimethylphenylsulfonyl)piperidin-2-yl)propan-1-one] were 98% and 95%.
Taken in the same sequence, the figures for `CCC1c2cccn2CCN1C(=O)COC[C@@H]1CCCCN1S(=O)(=O)c1c(C)cc(OC)cc1C` (stereo partly drawn) [(86), 1-(1-ethyl-3,4-dihydropyrrolo[1,2-a]pyrazin-2(1H)-yl)-2-(((S)-1-(4-methoxy-2,6-dimethylphenylsulfonyl)piperidin-2-yl)methoxy)ethanone] were 99% and 99%.
Consider `COc1cc(C)c(S(=O)(=O)N2CCCCC2COCC(=O)N2CCn3c(Cc4ccncc4)ccc3C2)c(C)c1` (stereo not drawn) [(88), 2-((1-(4-Methoxy-2,6-dimethylphenylsulfonyl)piperidin-2-yl)methoxy)-1-(6-(pyridin-4-ylmethyl)-3,4-dihydropyrrolo[1,2-a]pyrazin-2(1H)-yl)ethanone], for which the inhibition at 10 µM in experiment [1] came out at 100%; in experiment [2], 99%.
Taken in the same sequence, the figures for `COc1cc(C)c(S(=O)(=O)N2CCCCC2COCC(=O)N2CCn3c(ccc3-c3cccnc3)C2)c(C)c1` (stereo not drawn) [(89), 2-((1-(4-Methoxy-2,6-dimethylphenylsulfonyl)piperidin-2-yl)methoxy)-1-(6-(pyridin-3-yl)-3,4-dihydropyrrolo[1,2-a]pyrazin-2(1H)-yl)ethanone] were 96% and 99%.
For the molecule `O=C(CC1CCCCN1S(=O)(=O)c1cccc(C(F)(F)F)c1)N1CCn2c(Cc3ccncc3)ccc2C1` (stereo not drawn) [(90), 1-(6-(Pyridin-4-ylmethyl)-3,4-dihydropyrrolo[1,2-a]pyrazin-2(1H)-yl)-2-(1-(3-(trifluoromethyl)phenylsulfonyl)piperidin-2-yl)ethanone], the results for the inhibition at 10 µM in experiment [1] and in experiment [2] were 47% and 25%, respectively.
As to `COc1cc(C)c(S(=O)(=O)N2CCCCC2CCCC(=O)N2CCn3c(Cc4ccncc4)ccc3C2)c(C)c1` (stereo not drawn) [(91), 4-(1-(4-Methoxy-2,6-dimethylphenylsulfonyl)piperidin-2-yl)-1-(6-(pyridin-4-ylmethyl)-3,4-dihydropyrrolo[1,2-a]pyrazin-2(1H)-yl)butan-1-one], the results for the inhibition at 10 µM in experiment [1] and in experiment [2] were 100% and 95%, respectively.
In the case of `COc1cc(C)c(S(=O)(=O)N2CCCCC2CCCC(=O)N2CCn3c(ccc3-c3cccnc3)C2)c(C)c1` (stereo not drawn) [(92), 4-(1-(4-Methoxy-2,6-dimethylphenylsulfonyl)piperidin-2-yl)-1-(6-(pyridin-3-yl)-3,4-dihydropyrrolo[1,2-a]pyrazin-2(1H)-yl)butan-1-one], the values for the inhibition at 10 µM in experiment [1] and in experiment [2] were 99% and 91%, respectively.
In the case of `O=C(CC1CCCCN1S(=O)(=O)c1cccc(C(F)(F)F)c1)N1CCn2c(ccc2-c2cccnc2)C1` (stereo not drawn) [(93), 1-(6-(Pyridin-3-yl)-3,4-dihydropyrrolo[1,2-a]pyrazin-2(1H)-yl)-2-(1-(3-(trifluoromethyl)phenylsulfonyl)piperidin-2-yl)ethanone], the inhibition at 10 µM is 55% in experiment [1] and 18% in experiment [2].
For `COc1cc(C)c(S(=O)(=O)N2CCCCC2CCC(=O)N2CCn3c(ccc3-c3cccnc3)C2)c(C)c1` (stereo not drawn) [(94), 3-(1-(4-Methoxy-2,6-dimethylphenylsulfonyl)piperidin-2-yl)-1-(6-(pyridin-3-yl)-3,4-dihydropyrrolo[1,2-a]pyrazin-2(1H)-yl)propan-1-one], the figures for the inhibition at 10 µM in experiment [1] and in experiment [2] were 99% and 45%, respectively.
Taken in the same sequence, the figures for `COc1cc(C)c(S(=O)(=O)N2CCCCC2COCC(=O)N2CCn3c(ccc3-c3ccncc3)C2)c(C)c1` (stereo not drawn) [(95), 2-((1-(4-Methoxy-2,6-dimethylphenylsulfonyl)piperidin-2-yl)methoxy)-1-(6-(pyridin-4-yl)-3,4-dihydropyrrolo[1,2-a]pyrazin-2(1H)-yl)ethanone] were 97% and 99%.
Taken in the same sequence, the figures for `COc1cc(C)c(S(=O)(=O)N2CCCCC2CCC(=O)N2CCn3c(ccc3-c3ccncc3)C2)c(C)c1` (stereo not drawn) [(96), 3-(1-(4-Methoxy-2,6-dimethylphenylsulfonyl)piperidin-2-yl)-1-(6-(pyridin-4-yl)-3,4-dihydropyrrolo[1,2-a]pyrazin-2(1H)-yl)propan-1-one] were 96% and 61%.
As for `O=C(CC1CCCCN1S(=O)(=O)c1cccc(C(F)(F)F)c1)N1CCn2c(Cc3cccnc3)ccc2C1` (stereo not drawn) [(97), 1-(6-(Pyridin-3-ylmethyl)-3,4-dihydropyrrolo[1,2-a]pyrazin-2(1H)-yl)-2-(1-(3-(trifluoromethyl)phenylsulfonyl)piperidin-2-yl)ethanone], the inhibition at 10 µM was found to be 103% in experiment [1] and 80% in experiment [2].
Regarding `O=C(CC1CCCCN1S(=O)(=O)c1cccc(C(F)(F)F)c1)N1CCn2c(CCc3cccnc3)ccc2C1` (stereo not drawn) [(98), 1-(6-(2-(Pyridin-3-yl)ethyl)-3,4-dihydropyrrolo[1,2-a]pyrazin-2(1H)-yl)-2-(1-(3-(trifluoromethyl)phenylsulfonyl)piperidin-2-yl)ethanone], the inhibition at 10 µM in experiment [1] and in experiment [2] was 90% in each case.

As usually defined, the inhibition is the change of the read-out against control, counted positive when it falls.
